This passage reports pest or weed control and Control value results from patent publication US12310365B2 (priority 2009, dated 2025).

Assay type in all cases: in vivo
Test [1] concerns Pseudoperonospora cubensis. As to the kind of experiment: Cucumber downy mildew preventive test. To be noted: for pest or weed control at 20 ppm: treatment concentration 20 ppm.
Test [2] deals with Pseudoperonospora cubensis. As to the kind of experiment: Cucumber downy mildew curative test. To be noted: single ingredient; for pest or weed control at 20 ppm: treatment concentration 20 ppm.
For test [3], the system named is Botrytis cinerea (Diethofencarb-resistant strain). Nature of the test: Tomato gray mold preventive test (Diethofencarb-resistant strain).
The test system of the next test is Pyricularia oryzae. As to the kind of experiment: whole plant or invertebrate. The settings on record: topical, 168 h, read-out: Control value.
The subject of test [4] is Sphaerotheca fuliginea. As to the kind of experiment: Cucumber powdery mildew preventive test. To be noted: Podosphaera fuliginea, topical, 168 h; for pest or weed control at 20 ppm: treatment concentration 20 ppm; for pest or weed control at 10 ppm: treatment concentration 10 ppm.
The subject of test [5] is Sphaerotheca fuliginea. Nature of the test: Cucumber powdery mildew curative test. The settings on record: Podosphaera fuliginea, topical, 168 h; for pest or weed control at 20 ppm: treatment concentration 20 ppm; for pest or weed control at 10 ppm: treatment concentration 10 ppm.
The test system of test [6] is Phytophthora infestans. As to the kind of experiment: whole plant or invertebrate. The settings on record: in Solanum lycopersicum, topical, 168 h, read-out: Control value.
For test [7], the system named is Phytophthora infestans. Nature of the test: whole plant or invertebrate. To be noted: in Solanum lycopersicum, topical, 168 h, read-out: Control value. The source holds these as a separate data set.
The mark [8] stands for this setting: Pseudoperonospora cubensis, topical, 168 h, treatment concentration 10 ppm.
[9] abbreviates: Botrytis cinerea, topical, 48 h, read-out: Control value.
[10] abbreviates: Pseudoperonospora cubensis, topical, 168 h, treatment concentration 9.4 ppm.
The mark [11] stands for this setting: treatment concentration 1.7 ppm.
[12] abbreviates: Pseudoperonospora cubensis, topical, 168 h.
[13] abbreviates: treatment concentration 4.4 ppm.
[14] abbreviates: Pseudoperonospora cubensis, topical, 168 h, treatment concentration 160 ppm.
[15] abbreviates: Pseudoperonospora cubensis, topical, 168 h, treatment concentration 40 ppm.
[16] abbreviates: treatment concentration 55.3 ppm.
[17] abbreviates: treatment concentration 160 ppm.
The mark [18] stands for this setting: treatment concentration 7.5 ppm.

Counter-ions that a name gives are not always drawn. Like-named read-outs stand apart in the source and are kept apart here.

`C[C@@]1(c2ccc(Oc3ccccc3)cc2)OC(=O)N(Nc2ccccc2)C1=O` (racemic) [Famoxadone]: the pest or weed control at 10 ppm is 0% in test [1] (setting [8]) and 92% in test [2] (setting [8]).

Regarding `CO/C=C(/C(=O)OC)c1ccccc1Oc1cc(Oc2ccccc2C#N)ncn1` [Azoxystrobin], the Control value in test [1] (treatment concentration 8 ppm) was 60; in test [2] (treatment concentration 8 ppm), 92.

Consider `CC(C)OC(=O)N[C@H](C(=O)N[C@H](C)c1nc2ccc(F)cc2s1)C(C)C` [Benthiavalicarb-isopropyl], for which the pest or weed control at 10 ppm was found to be 40% in test [1] (setting [8]) and 67% in test [2] (setting [8]).

Take `O=C(Nc1ccccc1-c1ccc(Cl)cc1)c1cccnc1Cl` [Boscalid]: in test [3] (setting [9]), the pest or weed control at 50 ppm is 17%.

Regarding `O=C1C2CC=CCC2C(=O)N1SC(Cl)(Cl)Cl` (centres unmarked) [Captan], in test [3] (setting [9]), the pest or weed control at 133.3 ppm is 33%.

Regarding `Cc1ccc(C(=O)NC[C@@H](NC(=O)OC(C)C)C(C)C)cc1` [Compound 2001, Isopropyl ((1S)-2-methyl-1-{[(4-methylbenzoyl)amino]methyl}propyl)-carbamate], in the test on Pyricularia oryzae, the pest or weed control at 5 ppm was determined as 33%.

`Cc1ccc(C(=O)NC[C@@H](NC(=O)OC(C)C)C(C)(C)C)cc1` [Compound 2002, Isopropyl ((1S)-2,2-dimethyl-1-{[(4-methylbenzoyl)amino]methyl}propyl)-carbamate]: in the test with Pyricularia oryzae, the pest or weed control at 5 ppm worked out at 33%.

Regarding `CC(C)OC(=O)N[C@H](CNC(=O)c1cc2ccccc2o1)C(C)C` [Compound 2003, Isopropyl ((1S)-1-{[(1-benzofuran-2-ylcarbonyl)amino]methyl}-2-methyl-propyl)carbamate], the pest or weed control at 5 ppm in the test on Pyricularia oryzae was 50%.

On to `Cc1ccc(C(=O)NC[C@@H](NC(=O)OCC(F)(F)F)C(C)C)cc1` [Compound 2004, 2,2,2-Trifluoroethyl ((1S)-2-methyl-1-{[(4-methylbenzoyl)amino]methyl}-propyl)carbamate], for which the pest or weed control at 5 ppm in the test with Pyricularia oryzae was determined as 67%.

Take `Cc1ccc(C(=O)NC[C@@H](NC(=O)OCC(F)(F)F)C(C)(C)C)cc1` [Compound 2005, 2,2,2-Trifluoroethyl ((1S)-2,2-dimethyl-1-{[(4-methylbenzoyl)amino]methyl}-propyl)carbamate]: the pest or weed control at 5 ppm in the test with Pyricularia oryzae came out at 67%.

Turning to `CC(C)[C@@H](CNC(=O)c1cc2ccccc2o1)NC(=O)OCC(F)(F)F` [Compound 2006, 2,2,2-Trifluoroethyl ((1S)-1-{[(1-benzofuran-2-ylcarbonyl)amino]methyl}-2-methylpropyl)carbamate], the pest or weed control at 5 ppm in the test with Pyricularia oryzae came out at 67%.

For the compound `Cc1ccc(C(=O)NC[C@H](C)NC(=O)OCC(F)(F)F)cc1` [Compound 2007, 2,2,2-Trifluoroethyl {(1S)-1-methyl-2-[(4-methylbenzoyl)amino]ethyl}-carbamate], the pest or weed control at 5 ppm in the test with Pyricularia oryzae was 67%.

Turning to `Cc1ccc(C(=O)NC[C@@H](NC(=O)OCc2ccccc2)C(C)C)cc1` [Compound 2008, Benzyl ((1S)-2-methyl-1-{[(4-methylbenzoyl)amino]methyl}propyl)carbamate], the pest or weed control at 5 ppm in the test with Pyricularia oryzae came out at 33%.

Regarding `Cc1ccc(C(=O)NC[C@@H](NC(=O)OC(C)C)C(F)(F)F)cc1` [Compound 2009, Isopropyl ((1R)-2,2,2-trifluoro-1-{[(4-methylbenzoyl)amino]methyl}ethyl)-carbamate], the pest or weed control at 5 ppm in the test with Pyricularia oryzae amounted to 67%.

As to `Cc1ccc(-c2c(Cl)nc(C#N)n2S(=O)(=O)N(C)C)cc1` [Cyazofamid], the pest or weed control at 9.4 ppm in test [1] (setting [10]) worked out at 40%; in test [2] (setting [10]), 67%.

Turning to `O=C(Cc1ccccc1)N/C(=N\OCC1CC1)c1c(C(F)(F)F)ccc(F)c1F` [Cyflufenamid], the results for the pest or weed control at 1.7 ppm with Sphaerotheca fuliginea [4] (setting [11]) and in the test on Sphaerotheca fuliginea [5] (setting [11]) were 33% and 67%, respectively.

Turning to `CCNC(=O)NC(=O)/C(C#N)=N/OC` [Cymoxanil], the pest or weed control at 20 ppm in test [1] (setting [12]) turned out to be 60%; in test [2] (setting [12]) it was 67%.

Regarding `CCOc1ccc(NC(=O)OC(C)C)cc1OCC` [Diethofencarb], the pest or weed control at 12.5 ppm in test [3] (setting [9]) was 0%.

Regarding `COc1ccc(C(=CC(=O)N2CCOCC2)c2ccc(Cl)cc2)cc1OC` [Dimethomorph], the values for the pest or weed control at 20 ppm in test [1] (setting [12]) and in test [2] (setting [12]) were 60% and 50%, respectively.

`CCNc1nc(CC)c(C(=O)NC(C#N)c2cccs2)s1` (centres unmarked) [Ethaboxam]: the Control value in test [1] (treatment concentration 10 ppm) is on record as 20; in test [2] (treatment concentration 10 ppm), 67.

`OC(c1ccc(Cl)cc1)(c1cncnc1)c1ccccc1Cl` (centres unmarked) [Fenarimol]: the pest or weed control at 4 ppm in the test on Sphaerotheca fuliginea [4] (treatment concentration 4 ppm) is 67%; in the test on Sphaerotheca fuliginea [5] (treatment concentration 4 ppm) it was 78%.

Consider `N#CC(CCc1ccc(Cl)cc1)(Cn1cncn1)c1ccccc1` (centres unmarked) [Fenbuconazole], for which the values for the pest or weed control at 4.4 ppm in the test on Sphaerotheca fuliginea [4] (setting [13]) and in the test with Sphaerotheca fuliginea [5] (setting [13]) were 27% and 75%, respectively.

Turning to `CC1(C(=O)Nc2ccc(O)c(Cl)c2Cl)CCCCC1` [Fenhexamid], in test [3] (setting [9]), the pest or weed control at 50 ppm was determined as 50%.

For the compound `O=[N+]([O-])c1cc(C(F)(F)F)c(Cl)c([N+](=O)[O-])c1Nc1ncc(C(F)(F)F)cc1Cl` [Fluazinam], in test [3] (setting [9]), the pest or weed control at 20 ppm is 0%.

For `N#Cc1c[nH]cc1-c1cccc2c1OC(F)(F)O2` [Fludioxonil], the pest or weed control at 20 ppm in test [3] (setting [9]) is 67%.

In the case of `CCCCC(O)(Cn1cncn1)c1ccc(Cl)cc1Cl` (centres unmarked) [Hexaconazole], the pest or weed control at 2 ppm was 17% in the test on Sphaerotheca fuliginea [4] (treatment concentration 2 ppm) and 75% in the test with Sphaerotheca fuliginea [5] (treatment concentration 2 ppm).

On to `Clc1ccc(CSC(Cn2cncn2)=Nc2ccc(Cl)cc2Cl)cc1` [Imibenconazole], for which the pest or weed control at 15 ppm amounted to 33% with Sphaerotheca fuliginea [4] (treatment concentration 15 ppm) and 75% in the test on Sphaerotheca fuliginea [5] (treatment concentration 15 ppm).

Take `CC(C)NC(=O)N1CC(=O)N(c2cc(Cl)cc(Cl)c2)C1=O` [Iprodione]: in test [3] (setting [9]), the pest or weed control at 50 ppm came out at 67%.

With `CO/N=C(/C(=O)OC)c1ccccc1COc1ccccc1C` [Kresoxim-methyl], the pest or weed control at 20 ppm amounted to 17% in the test on Sphaerotheca fuliginea [4] and 67% in the test with Sphaerotheca fuliginea [5].

Regarding `CC#Cc1cc(C)nc(Nc2ccccc2)n1` [Mepanipyrim], the pest or weed control at 20 ppm in the test on Sphaerotheca fuliginea [4] is 0%; in the test on Sphaerotheca fuliginea [5] it was 75%.

As to `COCC(=O)N(c1c(C)cccc1C)[C@H](C)C(=O)OC` [Metalaxyl M], the Control value was found to be 60 in test [1] (treatment concentration 10 ppm) and 83 in test [2] (treatment concentration 10 ppm).

For `COCC(=O)N(c1c(C)cccc1C)C(C)C(=O)OC` (centres unmarked) [Metalaxyl], the pest or weed control at 10 ppm was determined as 60% in test [1] (setting [8]) and 92% in test [2] (setting [8]).

`CC1(C)COC(C)(CCCc2ccc(Cl)cc2)N1C(=O)n1ccnc1.CC1(C)COC(C)(CCCc2ccc(Cl)cc2)N1C(=O)n1ccnc1.O=C(O)/C=C/C(=O)O` (centres unmarked) [Oxpoconazole fumarate] had a Control value in test [3] (treatment concentration 10 ppm) of 0.

For the compound `CC(C)CC(C)c1sccc1NC(=O)c1cn(C)nc1C(F)(F)F` (centres unmarked) [Penthiopyrad], the pest or weed control at 10 ppm in test [3] (setting [9]) turned out to be 33%.

As to `CC12CC1(C)C(=O)N(c1cc(Cl)cc(Cl)c1)C2=O` (centres unmarked) [Procymidone], the pest or weed control at 50 ppm in test [3] (setting [9]) is 17%.

As for `CCCOC(=O)NCCCN(C)C` [Propamocarb hydrochloride], the pest or weed control at 160 ppm is 0% in the test on Phytophthora infestans [6], 0% in the test with Phytophthora infestans [7], 20% in test [1] (setting [14]) and 0% in test [2] (setting [14]).

Consider `C[Si](C)(C)CC(O)(Cn1cncn1)c1ccc(F)cc1` (centres unmarked) [Simeconazole], for which the pest or weed control at 10 ppm was 33% in test [3] (setting [9]), 0% with Sphaerotheca fuliginea [4] and 33% in the test with Sphaerotheca fuliginea [5].

Take `N#Cc1c(Cl)c(Cl)c(Cl)c(C#N)c1Cl` [TPN, Chlorothalonil (TPN)]: the pest or weed control at 40 ppm turned out to be 0% in the test on Phytophthora infestans [6], 0% in the test with Phytophthora infestans [7], 60% in test [1] (setting [15]) and 83% in test [2] (setting [15]).

Consider `CC(C)(C)C(O)(CCc1ccc(Cl)cc1)Cn1cncn1` (centres unmarked) [Tebuconazole], for which the figures for the pest or weed control at 20 ppm in the test with Sphaerotheca fuliginea [4] and in the test on Sphaerotheca fuliginea [5] were 33% and 67%, respectively.

Consider `COC(=O)NC(=S)Nc1ccccc1NC(=S)NC(=O)OC` [Thiophanate-methyl], for which the pest or weed control at 70 ppm in test [3] (setting [9]) is 43%.

For `CC(C)(C)C(=O)C(Oc1ccc(Cl)cc1)n1cncn1` (centres unmarked) [Triadimefon], the pest or weed control at 10 ppm in the test on Sphaerotheca fuliginea [4] came out at 0%; in the test on Sphaerotheca fuliginea [5], 67%.

On to `CCCOC/C(=N\c1ccc(Cl)cc1C(F)(F)F)n1ccnc1` [Triflumizole], for which the pest or weed control at 6 ppm was 33% in the test on Sphaerotheca fuliginea [4] (treatment concentration 6 ppm) and 67% in the test with Sphaerotheca fuliginea [5] (treatment concentration 6 ppm).

As for `[Cu+2].[OH-].[OH-]` [cupric hydroxide], the Control value in test [1] (setting [16]) was 40; in test [2] (setting [16]), 50.

For Fosetyl-aluminium, the Control value in test [1] (setting [17]) amounted to 60; in test [2] (setting [17]) it was 67.

Compound Iminoctadine trialbesilate showed a Control value in test [3] (treatment concentration 40 ppm) of 67.

On to Mancozeb, for which the Control value in test [1] (setting [18]) is on record as 60; in test [2] (setting [18]), 67.

Turning to Maneb, the Control value in test [3] (treatment concentration 177.5 ppm) is 17.
